Key:
[1] = Body weight monitoring in STZ 3×Tg-AD mice; assay type: in vivo, mouse; conditions: 0.25 mg/kg i.p. daily 28 days; NBG vs HBG groups treated with compound (I)
Experimental: (§1) Hyperglycemia was induced by streptozotocin (STZ) to accelerated Alzheimer's disease progression of 6-month-old male transgenic 3×Tg−AD mice. Half of the 3×Tg−AD mice (n=30) received STZ (100 mg/kg) intraperitoneal injection at days 1, 2, 8, and 9 respectively as the high blood glucose group (HBG); another half of the 3×Tg-AD mice (n=30) received sodium citrate (0.1 M) at the same time points as the normal blood glucose group (NBG). Then, HBG and NBG were divided into two groups respectively to give four groups such as NBG-compound (I), HBG-compound (I), NBG-DMSO, and HBG-DMSO with n=15 in each group; wherein 0.25 mg/kg of compound (I) (in 30 μL) were intraperitoneal injected into those mice of NBG-compound (I) and HBG-compound (I) groups daily since day 14 for 28 days, and 30 μL of DMSO solvent were intraperitoneal injected into those mice of NBG-DMSO and HBG-DMSO groups daily since day 14 for 28 days. Both mouse body weight (BW) and blood glucose (BG) were monitored every week.

[2] = tested on: p-tau (Ser202, Thr231 and Ser396); assay: Western blot of phosphorylated tau in tauRD-DsRed SH-SY5Y cells; assay type: cell-based, human; conditions: untreated = 100%
Experimental: (§2) Western blotting analysis was applied for examining the expressions of HSPB1 and GRP78, the method was as follows: total proteins were extracted using RIPA buffer, which comprised 50 mM Tris-HCl, 150 mM NaCl, 1 mM EDTA, 1 mM EGTA, 0.1% SDS, 0.5% sodium deoxycholate, 1% Triton X-100, and a protease inhibitor cocktail (Calbiochem). 25 μM of total proteins were separated on 10% SDS-PAGE gels and blotted onto nitrocellulose membrane which were stained (4° C., overnight) with antibodies against DsRed (1:500; Santa Cruz), HSPB1 (1:500; Santa Cruz), and GRP78 (1:200; Santa Cruz). Next, immunoreactive bands were detected using horseradish peroxidase-conjugated goat anti-mouse, goat anti-rabbit, or donkey anti-goat IgG antibodies (1:5000; GeneTex) and chemiluminescent substrate (Millipore).
(§3) The methods of cell culture and western blot analysis are similar to that described above, except that the antibodies against GSK-3β (total and p-Ser9) (1:1000; Cell Signaling), total tau (1:500; Dako), p-tau (Ser202) (1:500; AnaSpec), p-tau (Thr231 and Ser396) (1:1000; Invitrogen), [3-actin (1:5000; Millipore), or GAPDH (1:2000; MDBio) were used herein for evaluation of the expression levels thereof in the cells.

HSPB1 = assay: Western blot of HSPB1 expression in tauRD-DsRed SH-SY5Y cells; assay type: cell-based, human; conditions: untreated = 100%
Source text: Furthermore, chaperones are molecules essential for proper protein folding which play a key role in protein-folding disorders in central nervous system. […] Moreover, the upregulation of endoplasmic reticulum chaperones such as glucose-regulated protein, 78 kDa (GRP78) is a cellular protective response against AD (Hoshino et al., 2007. Endoplasmic reticulum chaperones inhibit the production of amyloid-(3 peptides. Biochem. J. 402, 581-589). Accordingly, the GRP78 and HSPB1 expression in tauRD-DsRed SH-SYSY cells treated by Congo red and compound (I) with or without doxycycline were analyzed.
as §2, with “25 μM of total proteins were separated on 10% SDS-PAGE gels and blotted onto nitrocellulose membrane which were stained (4° C., overnight) with antibodies against DsRed (1:500; Santa Cruz), HSPB1 (1:500; Santa Cruz), and GRP78 (1:200; Santa Cruz).” left out

Recombinant human GSK-3β = target: T1, Recombinant human GSK-3β (Homo sapiens, UniProt P49841); assay: GSK-3β kinase activity, ADP-Glo Kinase Assay; assay type: biochemical
T1 construct: purchased Promega V1991
Experimental: The ability of the compound (I) and SB216763 (compound (II)) for inhibiting GSK-3β activity is evaluated in the following paragraphs, wherein compound (II) is a known GSK-3β inhibitor in the art (Product No. 53442, Sigma). GSK-3β kinase activity was measured in the presence of the tested compounds (I) and (II) using ADP-Glo™ Kinase Assay system (Promega). Recombinant human GSK-3β (Product code V1991, Promega) was used as the enzyme source, and the GSK-3β substrate is derived from human muscle glycogen synthase 1 peptide ([…](pS)EDEEE) which corresponds to a region of glycogen synthase that is phosphorylated by GSK-3β. Reactions were performed at 30° C. for 30 minutes in 25 μL mixture that contained 25 μM ATP, 0.2 mg/mL GSK-3β substrate, 1 ng of GSK-3β, and serial dilutions of compound (I) or compound (II). Kinase activity data were measured as relative light units (RLU) directly correlated with the amount of ADP produced and FIG. 1 showing the analysis results.
The IC50 values of compound (I) and compound (II) were determined by using SigmaPLOT software.

[3] = tested on: GSK-3β (total and p-Ser9); assay: Western blot of total and phosphorylated GSK-3β in tauRD-DsRed SH-SY5Y cells; assay type: cell-based, human
Experimental: as §2, §3

[4] = tested on: cholinergic, serotonergic and noradrenergic neurons; assay: Immunohistochemical staining in brain region (ChAT, TH, 5HT neurons); assay type: in vivo, mouse; conditions: for 5HT (serotonergic neurons in the Raphe nucleus) quantification / TH (noradrenergic neurons in the LC region) quantification: 0.25 mg/kg i.p. daily 28 days
Experimental: as §1
Neurons including the cholinergic neurons in the medial septum (MS), vertical diagonal band of Broca (VDB), and horizontal diagonal band of Broca (HDB) regions; the serotonergic neurons in the Raphe nucleus; and the noradrenergic neurons in the locus coeruleus (LC) region, which are related to cognition in the other brain regions were examined.
After the brain tissue of the mice were fixed and dehydrated, the tissue was cryosectioned (30 μm). The cryosections were then washed with phosphate buffered saline (PBS) for three times. After the optimal cutting temperature compound (OCT) was removed, 3% H2O2was used to remove the endogenous peroxidase, and the cryosections were blocked by the blocking solution for 1 hour to reduce non-specific antigen reactions. The primary antibodies (ChAT, TH, 5HT) were added and reacted for 12 hours, the secondary antibody (1:200 dilution in blocking solution, Vecter) was added and reacted for 1 hour, and then, the avidin-biotin complex was added and reacted for 1 hour. Finally, DAB-kit was used for coloring. All the stained sections were attached to the slides, dried, dehydrated, and mounted for imaging and quantification (Image Pro Plus).

T1 sequence (P49841 whole entry): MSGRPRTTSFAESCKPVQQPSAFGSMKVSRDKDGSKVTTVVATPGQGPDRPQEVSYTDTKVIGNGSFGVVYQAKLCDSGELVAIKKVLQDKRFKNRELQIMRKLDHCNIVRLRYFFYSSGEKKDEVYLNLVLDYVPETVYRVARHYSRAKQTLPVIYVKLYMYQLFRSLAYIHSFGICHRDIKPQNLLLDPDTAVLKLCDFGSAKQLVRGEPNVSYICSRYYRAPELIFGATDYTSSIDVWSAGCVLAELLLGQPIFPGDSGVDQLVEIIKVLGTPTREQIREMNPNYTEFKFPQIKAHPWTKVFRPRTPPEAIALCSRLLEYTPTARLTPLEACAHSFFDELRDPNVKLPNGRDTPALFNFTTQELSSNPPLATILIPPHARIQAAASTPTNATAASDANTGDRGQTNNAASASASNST

## CCCCC/C=C\C/C=C\C/C=C\C/C=C\CCCC(=O)Nc1ccc(O)cc1 [compound (I), (5Z, 8Z, 11Z,14Z)-N-(4-Hydroxyphenyl)icosa-5 ,8 , 11,14-tetraen amide]
[1]
  body weight (BW): no significant difference in BW
[2]
  phosphorylated tau Ser202 level relative to untreated cells: 32%-42%
  phosphorylated tau Ser396 level relative to untreated cells: 54%-78%
  phosphorylated tau Thr231 level relative to untreated cells: 37%-48%
HSPB1
  expression of HSPB1 relative to untreated cells: 174%
Recombinant human GSK-3β; 25 μM ATP, 1 ng GSK-3β, 30° C., 30 minutes
  IC50: 5.35 µM
Recombinant human GSK-3β; concentration of compound (I) 0.018 μM, read-out: residual activity of GSK-3β
  remaining activity at 0.018 µM: 69.6 ± 2%
[3]
  GSK-3β expression: down-regulated
  expression level of phosphorylated GSK-3β: increased
[4]; HBG 3×Tg-AD mice
  5HT (serotonergic neurons in the Raphe nucleus) quantification: 33.00 ± 1.78↑↑↑
  TH (noradrenergic neurons in the LC region) quantification: 56.89 ± 4.45↓
[4]; NBG 3×Tg-AD mice
  5HT (serotonergic neurons in the Raphe nucleus) quantification: 31.80 ± 2.04
  TH (noradrenergic neurons in the LC region) quantification: 75.75 ± 3.12
[4]; data not shown, among groups
  cholinergic neurons (ChAT; MS, VDB, HDB regions): no difference was identified
